# Test results taken from US6946076B2, “Removal of phosphate from water” (Dudley Mills Pty Ltd., priority 2001, dated 2005).
# Details: made by mixing lanthanum chloride, citric acid and sodium hydroxide solutions
substance,measurement,value
lanthanum hydroxy-citrate,content of clear stable solutions,up to 200 g/l
